Measured values: patent publication USRE42890E1, “Furazanobenzimidazoles” (Basilea Pharmaceutica AG, priority 2003, dated 2011)
Read-outs that look alike come from different tables or passages of the source.

Columns and labels:
MRC5 = assay: MTS proliferation assay, MRC5; format: cell-based; conditions: MRC5, 72 h incubation, read-out: MTS proliferation assay IC 50 MRC5
Procedure: (§1) Cell lines are cultured in RPMI-1640 tissue culture medium containing either 5% or 10% fetal calf serum, 0.05 mM 2-mercaptoethanol, 2 mM glutamine and penicillin/streptomycin 50 μg/ml (complete medium) (Sigma, Buchs, Switzerland). General growth conditions are 37° C. and 7.5% CO2.
(§2) The assay is performed in 96 well tissue culture plates. The cells (range: 1.5*10^3-10^4) are seeded out in 80 μl complete medium 24 h prior to compound treatment. The test compounds are added in 20 μl complete medium containing max 5% DMSO. The final compound concentrations in the assays are 10 μM, 3 μM, 1 μM and 0.3 μM, respectively. The assay plates are incubated for 72 h at culture conditions. The MTS reagent is prepared according to the manufacturer's protocol (Promega G1111). 20 μl MTS reagent are added to each well, the assay plates are quickly spun and incubated for another 3 h at culture conditions. Subsequently, the plates are shortly shaked and absorption measured with a microplate-reader at 492 nm.

Jurkat = assay: MTS proliferation assay, Jurkat; format: cell-based, human; conditions: 72 h incubation, read-out: MTS proliferation assay IC 50 Jurkat
Procedure: as §1
(§3) The following human cell lines (either EGFP transfected or not) are being used: HeLa (ATCC: CCL-2), KB (ATCC: CCL-17), MCF7 (ATCC: HTB-22), SK-BR-3 (ATCC: HTB-30), SK-Mel 1 (ATCC: HTB-67), SK-Mel 28 (ATCC: HTB-72), PC-3 (ATCC: CRL-1435), SW 480 (ATCC: CCL-228), NCl-H460 (ATCC: HTB-177), NCl-H1792 (ATCC: CRL-5895), HT1080 (ATCC: CCL-21), Jurkat (ATCC: TIB-152), Ramos (ATCC: CRL-1596), Raji (ATCC: CCL-86), H9 (ATCC: HTB-176), Hut78 (ATCC: TIB-161), K562 (ATCC: CCL 243), HL-60 (ATCC: CCL 240), U-87MG (ATCC: HTB-14), HepG2 (ATCC: HB-8065), U-2 OS (ATCC: HTB-96), Saos-2 (ATCC: HTB-85), U937 (ATCC: CRL 1593), Hs 578T (ATCC: HTB 126), HBL-100 (ATCC: HTB 124), Molt-4 (ATCC: CRL 1582).
as §2

HeLa = assay: MTS proliferation assay, HeLa; format: cell-based, human; conditions: 72 h incubation, read-out: MTS proliferation assay IC 50 HeLa
Procedure: as §1, §3, §2

[1] = test system: adherent cells or suspension cells; assay: Hoechst 33342 nuclear staining (fraction of apoptotic nuclei); format: cell-based; design: key: 0 relating to no activity; 1 relating to weak activity comprising less than 70% of the cells; score 2 relating to strong activity comprising more than 70% of the cells
Procedure: as §1
This assay is performed in 96 well tissue culture plates. Appropriate number of cells (adherent cells: 3-5*10^3, suspension cells: 8-10*10^3) are being seeded out in 80 μl complete medium. Adherent cells are incubated for 24 h for proper spreading out before addition of test compounds while suspension cells are immediately treated with test compounds after seeding out. The test compounds are added in 20 μl complete medium containing max 5% DMSO. […] After 24 h or 48 h incubation at culture conditions, 10 μl medium containing Hoechst 33342 dye (Sigma B-2261) at 2-5 μg/ml are added to each well. The assay plates are then further incubated for 30 minutes and subsequently analyzed with a standard inverted fluorescence microscope.
The readout allows the determination of the fraction of apoptotic nuclei as well as other morphological criteria specific for apoptosis as a function of the treatment. The following scores are used: 0 relating to no activity, 1 relating to weak activity comprising less than 70% of the cells and score 2 relating to strong activity comprising more than 70% of the cells.

IC50 (Jurkat; Homo sapiens)	IC50 (Jurkat)	IC50 (HeLa)	SMILES	IC50 (MRC5; Homo sapiens)	Hoechst 33342 nuclear staining score ([1]; HeLa, conc 0.01 μm)	Hoechst 33342 nuclear staining score ([1]; HeLa, conc 0.1 μm)	Hoechst 33342 nuclear staining score ([1]; HeLa, conc 1 μm)	Hoechst 33342 nuclear staining score ([1]; Jurkat, conc 0.01 μm)	Hoechst 33342 nuclear staining score ([1]; Jurkat, conc 0.1 μm)	Hoechst 33342 nuclear staining score ([1]; Jurkat, conc 1 μm)	Hoechst 33342 nuclear staining score ([1]; MRC5, conc 0.01 μm)	Hoechst 33342 nuclear staining score ([1]; MRC5, conc 0.1 μm)	Hoechst 33342 nuclear staining score ([1]; MRC5, conc 1 μm)	Hoechst 33342 nuclear staining score ([1]; PBLs, conc 0.01 μm)	Hoechst 33342 nuclear staining score ([1]; PBLs, conc 0.1 μm)	Hoechst 33342 nuclear staining score ([1]; PBLs, conc 1 μm)	IC50 (MRC5)	Hoechst 33342 nuclear staining score ([1]; H460, conc 0.01 μm)	Hoechst 33342 nuclear staining score ([1]; H460, conc 0.1 μm)	Hoechst 33342 nuclear staining score ([1]; H460, conc 1 μm)	other results
0.1 to 1 µM			CC(=O)Nc1nonc1-c1nc2ccccc2n1CC(=O)c1ccc(Cl)cc1 [Example 5, N-{4-[1-(4-Chlorophenacyl)-1H-benzimidazol-2-yl]-furazan-3-yl}-acetamide]	0.1 to 1 µM	0	0	2 (score 2 relating to strong activity comprising more than 70% of the cells)	0	0	2 (score 2 relating to strong activity comprising more than 70% of the cells)	0	0	0	0	0	0					IC50 (HeLa; Homo sapiens): 0.1 to 1 µM
	0.1 to 1 µM	0.1 to 1 µM	CON=C(Cn1c(-c2nonc2N)nc2ccccc21)c1ccc(Cl)cc1 (mixture of isomers) [Example 22]		0	0	2 (score 2 relating to strong activity comprising more than 70% of the cells)	0	0	2 (score 2 relating to strong activity comprising more than 70% of the cells)	0	0	0	0	0	0	0.1 to 1 µM	0	0	0	
	0.1 to 1 µM	> 1 µM	Cc1cc2nc(-c3nonc3N)n(CC(=O)c3ccc(Br)cc3)c2cc1C [Example 109]		0	0	0	0	0	0	0	0	0	0	0	0	> 1 µM	0	0	0	Hoechst 33342 nuclear staining score ([1]; Jily, conc 0.01 μm): 0; Hoechst 33342 nuclear staining score ([1]; Jily, conc 0.1 μm): 0; Hoechst 33342 nuclear staining score ([1]; Jily, conc 1 μm): 0
	0.1 to 1 µM	> 1 µM	CON=C(Cn1c(-c2nonc2N)nc2ccccc21)c1ccccc1 (mixture of isomers) [Example 18]		0	0	2 (score 2 relating to strong activity comprising more than 70% of the cells)	0	0	2 (score 2 relating to strong activity comprising more than 70% of the cells)	0	0	1 (1 relating to weak activity comprising less than 70% of the cells)	0	0	0	0.1 to 1 µM	0	0	1 (1 relating to weak activity comprising less than 70% of the cells)	
> 1 µM			Nc1nonc1-c1nc2ccccc2n1CC(=NO)c1ccc(Br)cc1 [Example 2, 4-[1-(4-Bromophenacyl)-1H-benzimidazol-2-yl]-furazan-3-ylamine oxime]	> 1 µM	0	0	0	0	0	0	0	0	0	0	0	0		0	0	0	IC50 (HeLa; Homo sapiens): > 1 µM
	0.1 to 1 µM	> 1 µM	CON=C(Cn1c(-c2nonc2N)nc2ccccc21)c1cccc(OC)c1 (mixture of isomers) [Example 25]		0	0	0	0	0	1 (1 relating to weak activity comprising less than 70% of the cells)	0	0	0	0	0	0	> 1 µM	0	0	0	Hoechst 33342 nuclear staining score ([1]; Jily, conc 0.01 μm): 0; Hoechst 33342 nuclear staining score ([1]; Jily, conc 0.1 μm): 0; Hoechst 33342 nuclear staining score ([1]; Jily, conc 1 μm): 0
0.01 to 0.1 µM			Nc1nonc1-c1nc2ccccc2n1CC(=O)c1ccccc1 [Example 1, 4-(1-Phenacyl-1H-benzimidazol-2-yl)-furazan-3-ylamine]	> 1 µM	0	0	2 (score 2 relating to strong activity comprising more than 70% of the cells)	0	0	2 (score 2 relating to strong activity comprising more than 70% of the cells)	0	0	1 (1 relating to weak activity comprising less than 70% of the cells)	0	0	0		0	0	2 (score 2 relating to strong activity comprising more than 70% of the cells)	IC50 (HeLa; Homo sapiens): 0.1 to 1 µM
